According to paper PMC5456102, “NGR-peptide−drug conjugates with dual targeting properties” (PLoS ONE, 2017):

Assays:
DNA = conditions: main Dau containing metabolite; cited from earlier work
[1] = system: HT-1080 (human fibrosarcoma) cells, CD13 positive; experiment: In vitro cytostatic effect (6 h treatment + 66 h drug-free); format: cell-based; conditions: HT-1080, read-out: IC50, 6 h, HT1080 (cytostatic effect)
Protocol: (§1) At 72 h, supernatant was removed from the cells, and viability was assessed by the PrestoBlue® reagent (Life Technologies), which was diluted in PBS to reach the concentration given in the manufacturer’s instruction. Curves were fitted by GraphPad Prism 5 software using the sigmoidal dose–response model (https://www.graphpad.com/scientific-software/prism/). The conjugates were serially diluted, 9 concentrations were measured in triplicates. […] IC50 values were averaged; statistical significance was calculated using unpaired t-tests. The cytostatic/cytotoxic effect of the cyclic NGR peptide-Dau conjugates was examined in vitro on CD13-positive HT-1080 human fibrosarcoma cells and on CD13-negative HT-29 human colon adenocarcinoma cells. High expression of CD13 in HT-1080 cells was confirmed by FACS, using the CD13-specific OKM13 antibody. […] We compared the toxicity of the conjugates and the free drug molecules. It is important to note that the free drug enters the cell via diffusion, while the conjugates are taken up by a receptor-mediated pathway, which is followed by the intracellular release of the drug molecule or its active metabolite. […] In the second experiment the conjugates were added to the cells for 72 h (cytotoxic effect).

[2] = system: HT-29 (human colon adenocarcinoma) cells, CD13 negative; experiment: as above; format: cell-based; conditions: HT-29, read-out: IC50, 6 h, HT-29 (cytostatic effect)
Protocol: as §1

[3] = system: HT-1080 (human fibrosarcoma) cells, CD13 positive; experiment: In vitro cytotoxicity (72 h treatment); format: cell-based; conditions: 72 h continuous treatment, PrestoBlue viability, 5000 cells/well, 9 concentrations in triplicates, IC50 averaged, tests carried out 3 times, read-out: IC50, 72 h, HT1080 (cytotoxic effect)
Protocol: as §1, with “In the case of cytotoxicity measurements, the drug containing medium was on the cells for the full period of the 72 h assay. At” for “At”

[4] = system: HT-29 (human colon adenocarcinoma) cells, CD13 negative; experiment: In vitro cytotoxicity (72 h treatment); format: cell-based; conditions: 72 h continuous treatment, PrestoBlue viability, 5000 cells/well, 9 concentrations in triplicates, IC50 averaged, tests carried out 3 times, read-out: IC50, 72 h, HT-29 (cytotoxic effect)
Protocol: as §1, with “In the case of cytotoxicity measurements, the drug containing medium was on the cells for the full period of the 72 h assay. At” for “At”

For `COc1cccc2c1C(=O)c1c(O)c3c(c(O)c1C2=O)C(OC1CC(N)C(O)C(C)O1)CC(O)(C(C)=NOCC(=O)NCC(=O)O)C3` (stereo not drawn) [Dau = Aoa-Gly-OH], the “binding to DNA” value (DNA) is listed as “binds efficiently to DNA”.
Work on `COc1cccc2c1C(=O)c1c(O)c3c(c(O)c1C2=O)C[C@@](O)(C(C)=O)C[C@@H]3O[C@H]1C[C@H](N)[C@H](O)[C@H](C)O1` [Daunomycin, daunomycin] yielded an IC50 [1] of 700 ± 300 nM, an IC50 [2] of 700 ± 300 nM and an IC50 [3] of 230 ± 100 nM. The IC50 [4] was 150 ± 100 nM.
